A compilation of properties of binary mixtures (doi:10.1016/j.molliq.2021.116359)

Test: xn = mol fraction of the nth substance listed
Conditions: 101.3 kPa, x1 = 0.2

CCCC[N+](CCCC)(CCCC)CCCC.O=S(=O)([O-])O + CCCCCCCCCO
Conditions | electrical conductivity [S/m] | speed of sound [m/s] | viscosity [mPa·s]
298.15 K | 0.0037 | 1411.5 | 137.2
303.15 K | 0.005 | 1395 | 107.9
318.15 K | 0.0102 | 1346.7 | 51.9
323.15 K | 0.0123 | 1331.1 | 41.9
328.15 K | 0.0146 | 1315.7 | 33.79
333.15 K | 0.018 | 1300.3 | 27.74
